Test results taken from PMC10123104 (Nucleic Acids Research, 2023).
No end group written: not given here.

Molecular target: YbiB (Escherichia coli, UniProt P30177)
Test: biochemical
Format: binding

Sequence of YbiB (P30177 whole entry): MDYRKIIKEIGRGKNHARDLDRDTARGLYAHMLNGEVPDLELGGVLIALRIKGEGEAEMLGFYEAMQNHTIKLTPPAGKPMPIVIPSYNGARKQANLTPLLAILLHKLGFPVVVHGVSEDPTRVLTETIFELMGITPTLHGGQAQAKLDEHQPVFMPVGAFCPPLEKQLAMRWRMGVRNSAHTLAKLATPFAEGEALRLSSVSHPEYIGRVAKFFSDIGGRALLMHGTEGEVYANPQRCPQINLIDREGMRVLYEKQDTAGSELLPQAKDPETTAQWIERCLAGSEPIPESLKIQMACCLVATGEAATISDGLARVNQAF

Compound	stoichiometry n (ITC, Figure 3C isotherm, single binding event)	Kd
CC[C@H](C)[C@H](NC(=O)[C@H](Cc1ccccc1)NC(=O)[C@H](CCC(=O)O)NC(=O)[C@@H](NC(=O)CNC(=O)[C@H](CCC(=O)O)NC(=O)[C@H](CCC(=O)O)NC(=O)[C@H](CC(=O)O)NC(=O)[C@H](CC(=O)O)NC(=O)[C@H](CCC(=O)O)NC(=O)[C@H](CC(=O)O)NC(=O)[C@H](Cc1c[nH]c2ccccc12)NC(=O)[C@H](CC(=O)O)NC(=O)[C@H](CC(=O)O)NC(=O)[C@H](CC(=O)O)NC(=O)[C@H](Cc1c[nH]c2ccccc12)NC(=O)[C@@H](N)CC(=O)O)C(C)C)C(=O)N[C@@H](Cc1ccc(O)cc1)C(=O)N[C@@H](CCCCN)C(=O)N[C@@H](CCCNC(=N)N)C(=O)O [peptide5]	0.937 ± 0.008	–
LEEIAEEDDEDADDDADEDD [peptide4-AA]	–	~10 µM
